# Legend:
# RDL receptor (WT) = target: T1, RDL receptor (WT) (Drosophila melanogaster, UniProt P25123); experiment: GABA-induced currents, voltage clamp of Xenopus oocytes expressing wild type RDL; assay type: cell-based; conditions: Hill coefficient, mean ± SEM
# T1 sequence (P25123 45-606): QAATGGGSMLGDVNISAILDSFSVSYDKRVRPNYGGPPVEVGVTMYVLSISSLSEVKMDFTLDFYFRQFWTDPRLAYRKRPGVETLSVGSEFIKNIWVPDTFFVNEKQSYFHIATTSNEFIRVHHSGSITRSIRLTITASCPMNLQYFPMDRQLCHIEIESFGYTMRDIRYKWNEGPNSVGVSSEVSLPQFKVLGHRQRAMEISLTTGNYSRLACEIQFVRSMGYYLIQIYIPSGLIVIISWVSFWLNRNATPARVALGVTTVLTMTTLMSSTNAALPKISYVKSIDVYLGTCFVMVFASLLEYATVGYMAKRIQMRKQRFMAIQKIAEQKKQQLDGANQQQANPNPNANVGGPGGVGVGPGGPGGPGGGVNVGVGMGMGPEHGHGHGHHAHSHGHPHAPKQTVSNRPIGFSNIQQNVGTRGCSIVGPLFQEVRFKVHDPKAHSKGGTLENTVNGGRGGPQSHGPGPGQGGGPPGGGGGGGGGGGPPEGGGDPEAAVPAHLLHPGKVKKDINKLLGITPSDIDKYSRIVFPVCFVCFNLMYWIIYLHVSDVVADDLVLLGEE
# RDL receptor F206A = RDL receptor F206A (Drosophila melanogaster, UniProt P25123, F206A); experiment: GABA-induced currents in oocytes, RDL F206A; assay type: cell-based; conditions: Phe206 substituted with Ala, compared to WT
# RDL receptor F206Y = RDL receptor F206Y (Drosophila melanogaster, UniProt P25123, F206Y); experiment: GABA-induced currents in oocytes, RDL F206Y; assay type: cell-based
# RDL receptor Y254A = RDL receptor Y254A (Drosophila melanogaster, UniProt P25123, Y254A); experiment: GABA-induced currents in oocytes, RDL Y254A; assay type: cell-based; conditions: Tyr254Ala receptors, GABA up to 100 mM
# RDL receptor Y254F = RDL receptor Y254F (Drosophila melanogaster, UniProt P25123, Y254F); experiment: GABA-induced currents in oocytes, RDL Y254F; assay type: cell-based
# RDL receptor F206Y/Y254F = RDL receptor F206Y/Y254F (Drosophila melanogaster, UniProt P25123, F206Y/Y254F); experiment: GABA-induced currents in oocytes, RDL F206Y/Y254F; assay type: cell-based; conditions: Hill coefficient
# RDL receptor F146A = RDL receptor F146A (Drosophila melanogaster, UniProt P25123, F146A); experiment: GABA-induced currents in oocytes, RDL F146A; assay type: cell-based
# [1] = test system: RDL mutant (TAG) mRNA without aminoacylated tRNA; assay type: cell-based, Drosophila; conditions: 5 mM GABA; mutant mRNA alone or with tRNA-dCA with no amino acid attached
# RDL receptor F206-FPhe = conditions: Hill coefficient, GABA
# RDL receptor F206-F2Phe = conditions: Hill coefficient, GABA
# RDL receptor F206-F3Phe = conditions: Hill coefficient, GABA
# RDL receptor Y254-FPhe = conditions: Hill coefficient, GABA
# RDL receptor Y254F2-Phe = conditions: Hill coefficient, GABA
# RDL receptor Y254F3-Phe = conditions: Hill coefficient, GABA
# RDL receptor F146F3Phe = conditions: Hill coefficient, GABA
# GABAA receptor = conditions: GABA-activated GABAA receptor; ref Padgett et al., 2007; cited from earlier work
# GABAC receptor = conditions: GABA-activated GABAC receptor; ref Lummis et al., 2005; cited from earlier work
# RDL receptor = conditions: homomers in Xenopus oocytes; ref Zhang et al., 1994; cited from earlier work
# Chain of RDL receptor F206Y (P25123 45-606 F206Y): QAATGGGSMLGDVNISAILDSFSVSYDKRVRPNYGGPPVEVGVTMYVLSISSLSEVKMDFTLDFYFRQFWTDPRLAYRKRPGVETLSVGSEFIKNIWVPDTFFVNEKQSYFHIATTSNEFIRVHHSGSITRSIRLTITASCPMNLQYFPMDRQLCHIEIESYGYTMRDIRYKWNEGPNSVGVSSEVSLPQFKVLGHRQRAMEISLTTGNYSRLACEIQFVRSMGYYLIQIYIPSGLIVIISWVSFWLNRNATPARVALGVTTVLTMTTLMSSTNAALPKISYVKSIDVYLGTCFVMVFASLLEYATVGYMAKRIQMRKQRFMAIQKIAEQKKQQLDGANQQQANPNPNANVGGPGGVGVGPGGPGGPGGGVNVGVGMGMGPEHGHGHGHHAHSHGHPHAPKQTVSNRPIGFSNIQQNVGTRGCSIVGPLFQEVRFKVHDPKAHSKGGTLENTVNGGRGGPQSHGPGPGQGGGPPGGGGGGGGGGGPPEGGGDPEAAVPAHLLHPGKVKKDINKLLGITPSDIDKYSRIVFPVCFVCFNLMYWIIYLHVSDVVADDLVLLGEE
# Chain of RDL receptor Y254F (P25123 45-606 Y254F): as the sequence (P25123 45-606 F206Y) above, with Y162F, Y210F counted along it
# Chain of RDL receptor F146A (P25123 45-606 F146A): as the sequence (P25123 45-606 F206Y) above, with F102A, Y162F counted along it
# Chain of RDL receptor F206A (P25123 45-606 F206A): as the sequence (P25123 45-606 F206Y) above, with Y162A counted along it
# Chain of RDL receptor Y254A (P25123 45-606 Y254A): as the sequence (P25123 45-606 F206Y) above, with Y162F, Y210A counted along it
# Chain of RDL receptor F206Y/Y254F (P25123 45-606 F206Y/Y254F): as the sequence (P25123 45-606 F206Y) above, with Y210F counted along it
compound,measurement,setting,value
NCCCC(=O)O [GABA],nH,RDL receptor (WT),1.4 ± 0.2
same,increase in EC50,RDL receptor F206A,~50 fold
same,nH,"RDL receptor F206Y; Hill coefficient, F206Y",2.2 ± 0.3
same,decrease in EC50 compared to WT,RDL receptor F206Y; Phe206Tyr,~200 fold
same,response to GABA,RDL receptor Y254A,did not respond
same,nH,"RDL receptor Y254F; Hill coefficient, Y254F",2.1 ± 0.4
same,increase in EC50,"RDL receptor Y254F; Tyr254 substituted with Phe, compared to WT",~4 fold
same,nH,RDL receptor F206Y/Y254F,1.9 ± 0.5
same,nH,"RDL receptor F146A; Hill coefficient, GABA, F146A",2.1 ± 0.2
same,increase in GABA EC50,"RDL receptor F146A; Phe146 substituted with Ala, compared to WT",< 4 fold
same,currents in response to GABA,[1],No currents
same,nH,RDL receptor F206-FPhe,1.8 ± 0.3
same,nH,RDL receptor F206-F2Phe,1.8 ± 0.3
same,nH,RDL receptor F206-F3Phe,2.0 ± 0.4
same,nH,RDL receptor Y254-FPhe,1.3 ± 0.4
same,nH,RDL receptor Y254F2-Phe,1.1 ± 0.2
same,nH,RDL receptor Y254F3-Phe,1.2 ± 0.3
same,nH,RDL receptor F146F3Phe,1.4 ± 0.4
same,slope of fluorination plot,GABAA receptor,0.29
same,slope of fluorination plot,GABAC receptor,0.21
picrotoxin,inhibition of RDL receptors,RDL receptor,inhibited
